Assay results reported in the kinase profiling compilation of Christmann-Franck et al. (2016).

Key:
Assay in all cases: radiometric filter-binding kinase assay, Kinase HotSpot
Details in all cases: compound 0.5 µM; ATP 10 µM
BRSK1 (human) = BRSK1 (human) (UniProt Q8TDC3)
CAMK2B (human) = CAMK2B (human) (UniProt Q13554)
CAMKK1 (human) = CAMKK1 (human) (UniProt Q8N5S9)
CDK4 CCND3 (human) = CDK4 CCND3 (human) (UniProt P30281+P11802)
CDK9 CCNK (human) = CDK9 CCNK (human) (UniProt O75909+P50750)
CSNK1A1 (human) = CSNK1A1 (human) (UniProt P48729)
EGFR (human) = EGFR (human) (UniProt P00533)
EPHA5 (human) = EPHA5 (human) (UniProt P54756)
FGFR1 (human) = FGFR1 (human) (UniProt P11362)
GSK3B (human) = GSK3B (human) (UniProt P49841)
IKBKE (human) = IKBKE (human) (UniProt Q14164)
[1] = molecular target: JAK1 JH1 catalytic (human) (UniProt P23458)
Chain of JAK1 JH1 catalytic (human) (P23458 whole entry, looked up): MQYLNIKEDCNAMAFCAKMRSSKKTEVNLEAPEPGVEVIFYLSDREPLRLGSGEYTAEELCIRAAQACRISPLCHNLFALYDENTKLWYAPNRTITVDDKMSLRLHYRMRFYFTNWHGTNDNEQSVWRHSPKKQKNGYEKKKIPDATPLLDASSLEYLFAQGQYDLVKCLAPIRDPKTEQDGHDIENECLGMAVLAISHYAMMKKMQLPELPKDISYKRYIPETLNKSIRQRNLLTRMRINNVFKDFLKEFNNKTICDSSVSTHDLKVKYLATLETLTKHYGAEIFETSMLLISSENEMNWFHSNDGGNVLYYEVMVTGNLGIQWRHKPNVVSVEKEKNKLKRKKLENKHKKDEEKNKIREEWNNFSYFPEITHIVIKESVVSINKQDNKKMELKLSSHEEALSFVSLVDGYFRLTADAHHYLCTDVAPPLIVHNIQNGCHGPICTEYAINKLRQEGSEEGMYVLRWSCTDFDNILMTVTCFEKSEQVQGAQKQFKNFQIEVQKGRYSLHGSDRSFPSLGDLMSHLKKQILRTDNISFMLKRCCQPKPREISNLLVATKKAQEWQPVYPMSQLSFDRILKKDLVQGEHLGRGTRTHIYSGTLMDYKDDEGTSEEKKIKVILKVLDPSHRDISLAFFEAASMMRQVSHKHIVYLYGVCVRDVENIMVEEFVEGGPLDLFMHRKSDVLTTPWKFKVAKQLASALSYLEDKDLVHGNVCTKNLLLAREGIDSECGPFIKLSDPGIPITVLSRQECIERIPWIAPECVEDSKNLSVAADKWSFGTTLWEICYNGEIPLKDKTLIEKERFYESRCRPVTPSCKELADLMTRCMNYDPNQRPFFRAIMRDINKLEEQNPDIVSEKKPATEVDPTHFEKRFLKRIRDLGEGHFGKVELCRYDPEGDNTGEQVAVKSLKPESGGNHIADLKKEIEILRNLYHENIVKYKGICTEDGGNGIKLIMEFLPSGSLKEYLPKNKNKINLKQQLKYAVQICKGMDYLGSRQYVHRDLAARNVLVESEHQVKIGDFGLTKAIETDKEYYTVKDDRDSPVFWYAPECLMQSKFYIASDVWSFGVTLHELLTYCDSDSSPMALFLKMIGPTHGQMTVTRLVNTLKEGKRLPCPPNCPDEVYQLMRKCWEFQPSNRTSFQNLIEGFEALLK

JAK2 JH1 JH2 (human) = JAK2 JH1 JH2 (human) (UniProt O60674)
MAP3K10 (human) = MAP3K10 (human) (UniProt Q02779)
MAP3K11 (human) = MAP3K11 (human) (UniProt Q16584)
MAP4K5 (human) = MAP4K5 (human) (UniProt Q9Y4K4)
Chain of MAP4K5 (human) (Q9Y4K4 whole entry, looked up): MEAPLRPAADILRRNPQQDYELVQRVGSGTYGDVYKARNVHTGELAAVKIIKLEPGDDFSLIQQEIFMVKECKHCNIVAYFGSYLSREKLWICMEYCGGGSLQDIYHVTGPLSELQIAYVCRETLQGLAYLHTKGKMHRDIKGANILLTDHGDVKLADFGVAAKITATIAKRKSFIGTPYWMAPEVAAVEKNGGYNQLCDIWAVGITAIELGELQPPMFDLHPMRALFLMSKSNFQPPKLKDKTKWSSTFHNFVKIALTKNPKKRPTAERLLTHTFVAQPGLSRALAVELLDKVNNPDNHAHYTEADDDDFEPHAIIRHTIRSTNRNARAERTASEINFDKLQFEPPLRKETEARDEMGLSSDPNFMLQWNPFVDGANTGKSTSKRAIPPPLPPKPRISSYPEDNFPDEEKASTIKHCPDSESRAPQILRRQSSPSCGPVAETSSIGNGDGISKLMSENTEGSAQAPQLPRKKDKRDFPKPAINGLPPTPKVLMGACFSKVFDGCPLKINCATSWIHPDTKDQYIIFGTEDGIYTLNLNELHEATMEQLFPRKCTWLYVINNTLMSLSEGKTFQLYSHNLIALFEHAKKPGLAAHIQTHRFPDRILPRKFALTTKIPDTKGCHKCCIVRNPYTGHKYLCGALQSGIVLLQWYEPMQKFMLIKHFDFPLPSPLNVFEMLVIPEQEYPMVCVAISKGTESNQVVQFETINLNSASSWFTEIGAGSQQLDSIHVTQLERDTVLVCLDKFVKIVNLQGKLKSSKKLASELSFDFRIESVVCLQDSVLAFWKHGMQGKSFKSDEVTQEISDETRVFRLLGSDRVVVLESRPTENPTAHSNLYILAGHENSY

MAPK1 (human) = MAPK1 (human) (UniProt P28482)
MAPK11 (human) = MAPK11 (human) (UniProt Q15759)
Chain of MAPK11 (human) (Q15759 whole entry, looked up): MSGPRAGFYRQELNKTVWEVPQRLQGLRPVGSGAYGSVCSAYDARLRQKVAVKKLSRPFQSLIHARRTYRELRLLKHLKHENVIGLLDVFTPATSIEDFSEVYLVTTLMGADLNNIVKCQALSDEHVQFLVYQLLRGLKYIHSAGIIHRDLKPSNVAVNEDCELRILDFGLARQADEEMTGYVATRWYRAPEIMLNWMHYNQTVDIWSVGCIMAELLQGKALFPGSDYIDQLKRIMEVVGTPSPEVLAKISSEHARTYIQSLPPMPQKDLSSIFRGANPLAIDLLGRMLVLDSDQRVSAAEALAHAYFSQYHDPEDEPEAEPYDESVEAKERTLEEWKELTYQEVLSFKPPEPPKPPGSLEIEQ

MAPKAPK3 (human) = MAPKAPK3 (human) (UniProt Q16644)
Chain of MAPKAPK3 (human) (Q16644 whole entry, looked up): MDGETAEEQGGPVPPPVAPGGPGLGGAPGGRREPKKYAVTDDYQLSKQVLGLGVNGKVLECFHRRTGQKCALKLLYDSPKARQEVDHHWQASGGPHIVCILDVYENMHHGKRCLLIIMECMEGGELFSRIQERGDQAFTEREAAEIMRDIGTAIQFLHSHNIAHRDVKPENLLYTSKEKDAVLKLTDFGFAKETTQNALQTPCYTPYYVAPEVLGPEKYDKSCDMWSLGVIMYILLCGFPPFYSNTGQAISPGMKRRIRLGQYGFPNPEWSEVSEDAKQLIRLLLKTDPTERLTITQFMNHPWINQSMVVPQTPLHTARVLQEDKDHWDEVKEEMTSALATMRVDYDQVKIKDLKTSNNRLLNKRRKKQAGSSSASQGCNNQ

MERTK (human) = MERTK (human) (UniProt Q12866)
MLTK (human) = MLTK (human) (UniProt Q9NYL2)
MUSK (human) = MUSK (human) (UniProt O15146)
MYLK2 (human) = MYLK2 (human) (UniProt Q9H1R3)
NEK2 (human) = NEK2 (human) (UniProt P51955)
Chain of NEK2 (human) (P51955 whole entry, looked up): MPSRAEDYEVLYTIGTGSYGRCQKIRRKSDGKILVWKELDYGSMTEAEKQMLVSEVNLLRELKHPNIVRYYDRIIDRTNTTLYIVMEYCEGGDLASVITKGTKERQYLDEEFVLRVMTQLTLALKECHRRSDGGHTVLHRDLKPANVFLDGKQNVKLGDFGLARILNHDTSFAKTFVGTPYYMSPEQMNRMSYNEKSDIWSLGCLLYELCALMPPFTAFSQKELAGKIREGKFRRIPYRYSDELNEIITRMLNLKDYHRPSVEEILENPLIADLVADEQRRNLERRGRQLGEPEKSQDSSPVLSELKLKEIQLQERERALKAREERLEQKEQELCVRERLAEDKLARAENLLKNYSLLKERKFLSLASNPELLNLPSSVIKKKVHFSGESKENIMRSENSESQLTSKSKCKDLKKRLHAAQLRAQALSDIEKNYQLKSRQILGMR

PDGFRA (human) = PDGFRA (human) (UniProt P16234)
PKN1 (human) = PKN1 (human) (UniProt Q16512)
PKN2 (human) = PKN2 (human) (UniProt Q16513)
PRKCE (human) = PRKCE (human) (UniProt Q02156)
Chain of PRKCE (human) (Q02156 whole entry, looked up): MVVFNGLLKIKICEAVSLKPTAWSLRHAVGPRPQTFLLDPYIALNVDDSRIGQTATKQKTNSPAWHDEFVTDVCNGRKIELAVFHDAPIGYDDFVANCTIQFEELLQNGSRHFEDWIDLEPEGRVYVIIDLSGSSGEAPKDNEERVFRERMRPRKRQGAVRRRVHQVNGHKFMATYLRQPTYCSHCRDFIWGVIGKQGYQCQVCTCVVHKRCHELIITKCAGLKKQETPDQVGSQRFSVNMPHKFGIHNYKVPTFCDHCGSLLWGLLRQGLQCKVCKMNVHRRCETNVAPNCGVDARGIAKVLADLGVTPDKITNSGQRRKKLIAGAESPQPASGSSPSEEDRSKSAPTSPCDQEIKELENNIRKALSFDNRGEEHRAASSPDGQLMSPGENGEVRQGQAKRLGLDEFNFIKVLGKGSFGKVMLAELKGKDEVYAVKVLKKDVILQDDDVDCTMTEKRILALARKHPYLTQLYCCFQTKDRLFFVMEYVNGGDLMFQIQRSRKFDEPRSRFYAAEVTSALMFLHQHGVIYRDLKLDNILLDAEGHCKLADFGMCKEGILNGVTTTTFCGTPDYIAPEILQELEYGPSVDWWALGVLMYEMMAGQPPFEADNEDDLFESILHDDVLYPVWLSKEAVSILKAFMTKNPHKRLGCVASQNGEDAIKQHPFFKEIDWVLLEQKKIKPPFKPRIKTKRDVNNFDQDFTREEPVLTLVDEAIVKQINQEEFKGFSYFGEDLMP

PRKD3 (human) = PRKD3 (human) (UniProt O94806)
PTK6 (human) = PTK6 (human) (UniProt Q13882)
ROS1 (human) = ROS1 (human) (UniProt P08922)
RPS6KA1 KD1 KD2 (human) = RPS6KA1 KD1 KD2 (human) (UniProt Q15418)
RPS6KA5 KD2 (human) = RPS6KA5 KD2 (human) (UniProt O75582)
RPS6KA6 KD1 KD2 (human) = RPS6KA6 KD1 KD2 (human) (UniProt Q9UK32)
Chain of RPS6KA6 KD1 KD2 (human) (Q9UK32 whole entry, looked up): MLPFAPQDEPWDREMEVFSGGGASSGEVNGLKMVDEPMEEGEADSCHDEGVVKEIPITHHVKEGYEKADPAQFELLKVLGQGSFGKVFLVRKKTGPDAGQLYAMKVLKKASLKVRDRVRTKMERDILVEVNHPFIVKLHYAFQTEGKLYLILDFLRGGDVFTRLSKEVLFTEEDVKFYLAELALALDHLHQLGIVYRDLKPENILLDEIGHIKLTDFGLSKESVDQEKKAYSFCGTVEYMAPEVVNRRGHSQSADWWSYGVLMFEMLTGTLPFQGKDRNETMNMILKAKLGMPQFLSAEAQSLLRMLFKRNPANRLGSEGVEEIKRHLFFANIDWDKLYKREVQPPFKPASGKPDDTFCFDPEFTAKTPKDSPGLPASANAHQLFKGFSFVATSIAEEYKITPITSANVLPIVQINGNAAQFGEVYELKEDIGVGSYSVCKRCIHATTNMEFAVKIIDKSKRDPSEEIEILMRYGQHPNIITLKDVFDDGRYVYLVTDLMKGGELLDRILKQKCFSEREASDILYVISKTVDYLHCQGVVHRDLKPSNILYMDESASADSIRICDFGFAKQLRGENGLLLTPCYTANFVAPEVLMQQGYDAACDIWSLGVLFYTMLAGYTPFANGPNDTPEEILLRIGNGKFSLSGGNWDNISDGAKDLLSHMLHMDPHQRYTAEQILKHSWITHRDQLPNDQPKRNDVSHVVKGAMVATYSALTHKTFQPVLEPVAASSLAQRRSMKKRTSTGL

SRMS (human) = SRMS (human) (UniProt Q9H3Y6)
SRPK1 (human) = SRPK1 (human) (UniProt Q96SB4)
STK4 (human) = STK4 (human) (UniProt Q13043)
TSSK1B (human) = TSSK1B (human) (UniProt Q9BXA7)
Chain of TSSK1B (human) (Q9BXA7 whole entry, looked up): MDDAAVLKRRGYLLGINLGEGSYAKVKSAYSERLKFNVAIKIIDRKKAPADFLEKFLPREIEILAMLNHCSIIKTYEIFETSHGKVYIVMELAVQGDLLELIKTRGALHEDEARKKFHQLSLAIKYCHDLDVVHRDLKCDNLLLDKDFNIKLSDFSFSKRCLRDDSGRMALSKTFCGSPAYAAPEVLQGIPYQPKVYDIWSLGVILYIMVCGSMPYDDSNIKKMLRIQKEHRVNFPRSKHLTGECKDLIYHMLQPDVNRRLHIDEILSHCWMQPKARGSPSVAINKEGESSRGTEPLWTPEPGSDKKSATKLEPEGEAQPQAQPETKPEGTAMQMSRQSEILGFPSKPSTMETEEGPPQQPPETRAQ

TYRO3 (human) = TYRO3 (human) (UniProt Q06418)
WEE1 (human) = WEE1 (human) (UniProt P30291)
WNK3 (human) = WNK3 (human) (UniProt Q9BYP7)

Compound: COc1cc2ncc(-c3ccccc3)nc2cc1OC
- residual activity (BRSK1 (human)): 102%
- residual activity (CAMK2B (human)): 93.3%
- residual activity (CAMKK1 (human)): 98.9%
- residual activity (CDK4 CCND3 (human)): 97.5%
- residual activity (CDK9 CCNK (human)): 102%
- residual activity (CSNK1A1 (human)): 100%
- residual activity (EGFR (human)): 82.9%
- residual activity (EPHA5 (human)): 99.9%
- residual activity (FGFR1 (human)): 92.9%
- residual activity (GSK3B (human)): 113%
- residual activity (IKBKE (human)): 98.9%
- residual activity [1]: 91.5%
- residual activity (JAK2 JH1 JH2 (human)): 94.4%
- residual activity (MAP3K10 (human)): 105%
- residual activity (MAP3K11 (human)): 86.8%
- residual activity (MAP4K5 (human)): 99.8%
- residual activity (MAPK1 (human)): 95.6%
- residual activity (MAPK11 (human)): 95.7%
- residual activity (MAPKAPK3 (human)): 86.7%
- residual activity (MERTK (human)): 80%
- residual activity (MLTK (human)): 94.7%
- residual activity (MUSK (human)): 95.9%
- residual activity (MYLK2 (human)): 100%
- residual activity (NEK2 (human)): 85.3%
- residual activity (PDGFRA (human)): 83.1%
- residual activity (PKN1 (human)): 104%
- residual activity (PKN2 (human)): 88.3%
- residual activity (PRKCE (human)): 87.9%
- residual activity (PRKD3 (human)): 91.1%
- residual activity (PTK6 (human)): 80.8%
- residual activity (ROS1 (human)): 100%
- residual activity (RPS6KA1 KD1 KD2 (human)): 88.4%
- residual activity (RPS6KA5 KD2 (human)): 91.8%
- residual activity (RPS6KA6 KD1 KD2 (human)): 98.5%
- residual activity (SRMS (human)): 102%
- residual activity (SRPK1 (human)): 105%
- residual activity (STK4 (human)): 96.3%
- residual activity (TSSK1B (human)): 94.5%
- residual activity (TYRO3 (human)): 100%
- residual activity (WEE1 (human)): 82.8%
- residual activity (WNK3 (human)): 97.5%

Compound: CN(C)C[C@H]1CCn2c(c(C3=C(c4cn(C)c5ccccc45)C(=O)NC3=O)c3ccccc32)C1
- residual activity (BRSK1 (human)): 101%
- residual activity (CAMK2B (human)): 96.9%
- residual activity (CAMKK1 (human)): 116%
- residual activity (CDK4 CCND3 (human)): 99.7%
- residual activity (CDK9 CCNK (human)): 43.5%
- residual activity (CSNK1A1 (human)): 98.5%
- residual activity (EGFR (human)): 95.8%
- residual activity (EPHA5 (human)): 95.1%
- residual activity (FGFR1 (human)): 87.8%
- residual activity (GSK3B (human)): 11.2%
- residual activity (IKBKE (human)): 78.8%
- residual activity [1]: 108%
- residual activity (JAK2 JH1 JH2 (human)): 98.6%
- residual activity (MAP3K10 (human)): 102%
- residual activity (MAP3K11 (human)): 95.2%
- residual activity (MAP4K5 (human)): 99.9%
- residual activity (MAPK1 (human)): 101%
- residual activity (MAPK11 (human)): 109%
- residual activity (MAPKAPK3 (human)): 97.9%
- residual activity (MERTK (human)): 95.4%
- residual activity (MLTK (human)): 87.3%
- residual activity (MUSK (human)): 85.6%
- residual activity (MYLK2 (human)): 74.2%
- residual activity (NEK2 (human)): 106%
- residual activity (PDGFRA (human)): 93.1%
- residual activity (PKN1 (human)): 7.06%
- residual activity (PKN2 (human)): 87%
- residual activity (PRKCE (human)): 2.73%
- residual activity (PRKD3 (human)): 93.6%
- residual activity (PTK6 (human)): 90.4%
- residual activity (ROS1 (human)): 87.1%
- residual activity (RPS6KA1 KD1 KD2 (human)): 5.9%
- residual activity (RPS6KA5 KD2 (human)): 24.8%
- residual activity (RPS6KA6 KD1 KD2 (human)): 2.94%
- residual activity (SRMS (human)): 109%
- residual activity (SRPK1 (human)): 103%
- residual activity (STK4 (human)): 80.1%
- residual activity (TSSK1B (human)): 104%
- residual activity (TYRO3 (human)): 99.3%
- residual activity (WEE1 (human)): 101%
- residual activity (WNK3 (human)): 100%

Compound: CN([C@@H](Cc1ccc(OS(=O)(=O)c2cccc3cnccc23)cc1)C(=O)N1CCN(c2ccccc2)CC1)S(=O)(=O)c1cccc2cnccc12
- residual activity (BRSK1 (human)): 96.4%
- residual activity (CAMK2B (human)): 97.8%
- residual activity (CAMKK1 (human)): 108%
- residual activity (CDK4 CCND3 (human)): 97.8%
- residual activity (CDK9 CCNK (human)): 89.4%
- residual activity (CSNK1A1 (human)): 99%
- residual activity (EGFR (human)): 89.4%
- residual activity (EPHA5 (human)): 102%
- residual activity (FGFR1 (human)): 103%
- residual activity (GSK3B (human)): 96.6%
- residual activity (IKBKE (human)): 92.6%
- residual activity [1]: 108%
- residual activity (JAK2 JH1 JH2 (human)): 96.6%
- residual activity (MAP3K10 (human)): 92.6%
- residual activity (MAP3K11 (human)): 105%
- residual activity (MAP4K5 (human)): 96.3%
- residual activity (MAPK1 (human)): 95.5%
- residual activity (MAPK11 (human)): 98.9%
- residual activity (MAPKAPK3 (human)): 101%
- residual activity (MERTK (human)): 100%
- residual activity (MLTK (human)): 103%
- residual activity (MUSK (human)): 92.7%
- residual activity (MYLK2 (human)): 98.8%
- residual activity (NEK2 (human)): 87.4%
- residual activity (PDGFRA (human)): 99.6%
- residual activity (PKN1 (human)): 105%
- residual activity (PKN2 (human)): 98.6%
- residual activity (PRKCE (human)): 99.5%
- residual activity (PRKD3 (human)): 99.2%
- residual activity (PTK6 (human)): 89.7%
- residual activity (ROS1 (human)): 96.5%
- residual activity (RPS6KA1 KD1 KD2 (human)): 109%
- residual activity (RPS6KA5 KD2 (human)): 100%
- residual activity (RPS6KA6 KD1 KD2 (human)): 100%
- residual activity (SRMS (human)): 103%
- residual activity (SRPK1 (human)): 104%
- residual activity (STK4 (human)): 96.8%
- residual activity (TSSK1B (human)): 95.4%
- residual activity (TYRO3 (human)): 101%
- residual activity (WEE1 (human)): 87.7%
- residual activity (WNK3 (human)): 101%
